Experimental findings from patent US4792555A, “Phospholipase A2 inhibitors” (American Home Products Corporation, priority 1987, dated 1988) are described below.

Test [1] has as its system 12-O-tetradecanoylphorbol acetate (TPA)-induced murine ear edema. The test is described as follows: TPA-induced murine ear edema test. The class given is in vivo, Swiss Webster female mice. The note with it: oral, 30 minutes after TPA; 4 μg TPA/ear; measured 4 hours after TPA; dose in mg/kg not given. As to the method:
The ability of the compounds of the invention to inhibit PLA2 is further examined in the in vivo 12-O-tetradecanoylphorbol acetate (TPA)-induced murine ear edema test. According to this test, Swiss Webster female mice (Buckshire), approximately 8 weeks old, are placed into plastic boxes in groups of six. Eight groups of mice receive TPA topically on the right ear. TPA is dissolved in acetone at a concentration of […]. The phlogistics are applied to the right ear by the means of an automatic pipet. Volumes of 10 μl are applied to the inner and outer surfaces of the ear. Each mouse receives 4 μg/ear TPA. The left ear (control) receives acetone delivered in the same manner. […] Measurements are taken with Oditest calipers, 0-10 mm with 0.01 graduations. The right and left ears are measured 4 hours after TPA-induced inflammation. The difference between right and left ear thickness is calculated and the significance is determined by a one way analysis of variance with Dunnett's comparisons to control (P=0.05). Drug effects are expressed as a percent change from control values: [formula]

The target in another test is T1, human platelet PLA2 (Homo sapiens, UniProt P14555).
T1 sequence (P14555 21-144): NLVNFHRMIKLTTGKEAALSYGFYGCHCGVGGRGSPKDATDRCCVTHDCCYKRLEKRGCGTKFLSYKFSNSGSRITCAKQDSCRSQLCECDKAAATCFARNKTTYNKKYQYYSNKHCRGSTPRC
The test is described as follows: Inhibition of human platelet PLA2 (hydrolysis of [1-14C]oleic acid labelled E. coli membrane phospholipids) in vitro. The class given is biochemical. The note with it: for IC50: standard drugs.

In test [2] the test system is rat carrageenan paw edema. The test is described as follows: Rat carrageenan paw edema assay. The note with it: for % Inhibition (paw edema): 100 mg/kg peroral, 1 hour prior to carrageenan, paw read at 3 hours. The class given is in vivo, male Sprague-Dawley rats. Here is the method: The compounds of the invention are further tested in the rat carrageenan paw edema assay to determine their ability to inhibit the acute inflammatory response.
This assay is carried out as follows:
140-180 gm male Sprague-Dawley rats, in groups of 6 animals are injected subcutaneously in the right paw with 0.1 ml of 1% carrageenan at zero time. Mercury plethysmographic readings (ml) of the paw are made at zero time and 3 hours later. Test compounds are suspended or dissolved in 0.5% methylcellulose and given perorally 1 hour prior to carrageenan administration.
The increase in paw volume (edema in ml.) produced by the carrageenan is measured. […] Unpaired Student's t-test used to determine statistical significance.
In general terms: The carrageenan paw model is a standard test of acute inflammation.

Test [3] has as its system synthesis of arachidonic acid, PGE2 and LTC4 by murine peritoneal macrophages. The test is described as follows: Inhibition of synthesis of arachidonic acid, PGE2 and LTC4 by murine peritoneal macrophages. The class given is cell-based, CD-1 mice. The note with it: Mus musculus, Peritoneal macrophage, 2 hours. Here is the method: The ability of the compounds of the invention to inhibit both leukotriene and prostaglandin synthesis is examined in an assay which measures the ability of the compounds of the invention to inhibit the synthesis of arachidonic acid, PGE2 and LTC4 by murine peritoneal macrophages.
The assay is carried out as follows:
Macrophages are removed from the peritoneal cavity of 55-57 day old CD-1 mice (killed by CO2 asphyxiation) by peritoneal lavage and centrifuged at 400×g for ten minutes. The cells are resuspended in Medium 199 and 4×10^6 cells are allowed to adhere on 35×10 mm Petri dishes for 1.5 hours at 37° C. in an atmosphere of 95% air and 5% CO2. The cell monolayers are washed and incubated overnight in Medium 199 supplemented with 10% heat inactivated bovine serum containing 1μCi[^14 C]-arachidonic acid, or in the absence of ^14 C-arachidonic acid when the supernatant is to be assayed by radioimmunoassay (RIA). The labeled cells are then washed and incubated at 37° C. for 2 hours in Medium 199 with the prostaglandin stimuli, zymosan, or 12-o-tetradecanoyl-phorbol-13-acetate (TPA) and in the presence or absence of test compounds. Following incubation, the supernatant is removed and subjected to radioimmunoassay in order to determine the percent inhibition of arachidonic acid, prostaglandin E2 and leukotriene C4 by the test compounds.

Setting [4] is: pH 7.4, read-out: % Inhibition of PLA2.
[5] abbreviates: at 100 μM, human platelet PLA2, 30 minutes, pH 7.4, read-out: % Inhibition of PLA2.
The mark [6] stands for this setting: human platelet PLA2, 30 minutes, pH 7.4.

Structures can show the parent of a compound that is named as a salt. Where two headings read alike, the source gives them in different places.

Experimental for human platelet PLA2: The ability of the compounds to inhibit the activity of PLA2 enzyme is measured in the following in vitro assay.
The assay measures the hydrolysis of E. coli membrane phospholipids and the release of free [1-^14 C] oleic acid from the C-2 position of phospholipids by human platelet PLA2. To ice cold 15×100 mm test tubes, the following additions are made: 2,5×10 E. coli (equivalent to 4 nmol phospholipid), 5 mM Ca^++, 100 mM Tris buffer (pH=7.4), 100 μg platelet extract (or an amount to produce 20-30% hydrolysis), drug or vehicle. The final volume is adjusted to 500 μl with water. Mixtures are vortexed and incubated for 30 minutes in a shaking water bath. It should be noted that preliminary experiments are always performed with each new batch of platelets to establish linear hydrolysis of phospholipids with regard to protein concentration and time. The enzyme reaction is stopped by the addition of 3 volumes of chloroform to each tube which is vortexed and then centrifuged for 5 minutes at 500 g. The lower chloroform/methanol phase is removed and evaporated under N. The dried residue is redissolved in 50 μl CHCl3 :CH3 OH (9:1 v/v), spotted on aluminum-backed chromatographic plates and developed in a solvent system consisting of petroleum ether:diethyl ether:acetic acid (80:20:1). Free fatty acid ([1-^14 C]oleic acid) and [1-^14 C]oleic acid labeled phospholipids are visualized with exposure to iodine vapors. Radioactive areas that cochromatographed with authentic oleic acid and phospholipid standards are cut out and placed in a scintillation vial. One ml CH3 OH and 10 ml Hydrofluor are added to each cut strip and radioactivity is determined by liquid scintillation counting.
The percent hydrolysis is calculated by the following equation: [formula]

Regarding `CCCCCCCCCCCCCCCCNC(=O)C(N)CCCC.Cl` (centres unmarked) [Example 1, 2-Amino-N-hexadecylhexanamide, hydrochloride], the “% Change from Control (mouse ear edema)” value in test [1] is recorded as -25%. Further, the inhibition (in general, how much of the control response was suppressed) at 100 µM at human platelet PLA2 (setting [4]) was determined as 99%.

For the molecule `CCCCC(N)C(=O)NC1CCCCCCCCCCC1.Cl` (centres unmarked) [Example 2a, 2-Amino-N-cyclododecylhexanamide, hydrochloride], the “% Change from Control (mouse ear edema)” value in test [1] is -60%. Further, the “% Inhibition (paw edema)” value in test [2] is recorded as 22%. Further, the inhibition at 100 µM on human platelet PLA2 (setting [4]) worked out at 76%.

As for `CCCC[C@H](N)C(=O)N1CCC(C)CC(C)(C)C1` (stereo partly drawn) [Example 2b, 1-[(S)-2-Amino-1-oxohexyl]hexahydro-3,3,5-trimethyl-1H-azepine, hydrochloride], the inhibition at 100 µM on human platelet PLA2 (setting [4]) came to 25%. For the molecule `CCCC[C@H](N)C(=O)N1CCC2CCCCC2C1` (stereo partly drawn) [Example 2c, 2-[(S)-2-Amino-1-oxohexyl]decahydroisoquinoline, hydrochloride hemihydrate], at human platelet PLA2 (setting [5]), the inhibition at 100 µM came to 24%. `CCCC[C@H](NC(=O)CCCCCCc1ccccc1)C(=O)N1CC(C)NC(C)C1` (stereo partly drawn) [Example 3, N-[(S)-1-Butyl-2-(3,5-dimethyl-1-piperazinyl)-2-oxoethyl]benzeneheptanamide]: the “% Change from Control (mouse ear edema)” value in test [1] is on record as -39%. Also, the inhibition at 100 µM on human platelet PLA2 (setting [5]) was 64%.

In the case of `CCCCC(NC(=O)Cc1ccc(-c2ccccc2)cc1)C(=O)N1CC(C)NC(C)C1` (centres unmarked) [Example 4, N-[1-[(3,5-Dimethyl-1-piperazinyl)carbonyl]pentyl][1,1'-biphenyl]-4-acetamide], the inhibition at 100 µM at human platelet PLA2 (setting [5]) was 52%. As to `CCCCCCCCCCCCCCCCNC(=O)[C@@H]1CCCN1` [Example 5a, N-(S)-Hexadecyl-2-pyrrolidinecarboxamide], the IC50 (in general, the concentration at which inhibition is half-maximal) in test [3] (arachidonic acid, zymosan or TPA stimulus, read-out: IC50 AA) was 19.6 µM; in test [3] (leukotriene C4, zymosan or TPA stimulus, read-out: IC50 LTC4), 7.6 µM; in test [3] (prostaglandin E2, zymosan or TPA stimulus, read-out: IC50 PGE2), 13.7 µM. Also, the “% Change from Control (mouse ear edema)” value in test [1] is listed as -53%. Moreover, the “% Inhibition (paw edema)” value in test [2] is on record as 26%. Besides, the inhibition at 100 µM at human platelet PLA2 (setting [5]) is 92%. Regarding `CCCCCCCCCCCCCCCCNC(=O)[C@H]1CCCN1` [Example 5b, N-(R)-Hexadecyl-2-pyrrolidinecarboxamide], the “% Inhibition (paw edema)” value in test [2] turned out to be 26%. Besides, on human platelet PLA2 (setting [5]), the inhibition at 100 µM was 98%.

As to `O=C(NC1CCCCCCCCCCC1)C1CCCN1` (centres unmarked) [Example 5c, N-Cyclododecyl-2-pyrrolidinecarboxamide, hydrochloride], the inhibition at 100 µM at human platelet PLA2 (setting [4]) worked out at 58%. For the molecule `O=C(NC1CCCCCCCCCCC1)C1CCCCN1` (centres unmarked) [Example 5d, N-Cyclododecyl-2-piperidinecarboxamide, hydrochloride], the inhibition at 100 µM at human platelet PLA2 (setting [4]) was found to be 45%. Turning to `O=C(C1CCCCN1)N1CCC2CCCCC2C1` (centres unmarked) [Example 5f, Decahydro-2-(2-piperidininylcarbonyl)isoquinoline, hydrochloride], the inhibition at 100 µM at human platelet PLA2 (setting [5]) worked out at 24%. As for `N[C@@H](Cc1c[nH]c2ccccc12)C(=O)NC1CCCCCCCCCCC1` [Example 6, (S)-α-Amino-N-cyclododecyl-1H-indole-3-propanamide, hydrochloride], on human platelet PLA2 (setting [4]), the inhibition at 100 µM was found to be 52%. Take `N[C@@H](CC(=O)OCc1ccccc1)C(=O)NC1CCCCCCCCCCC1` [Example 7, (S)-3-Amino-4-(cyclododecylamino)-4-oxobutanoic acid phenylmethyl ester, hydrochloride]: on human platelet PLA2 (setting [4]), the inhibition at 100 µM turned out to be 60%. In the case of `COc1ccc2c(c1)c(CC(=O)O)c(C)n2C(=O)c1ccc(Cl)cc1` [Indomethacin, reference compound], in test [2] (Rattus norvegicus, po, 3 h, read-out: Oral ED50 (95% C.L.)), the ED50 (usually the dose that gives a 50% effect, or the effect in half of the subjects) stood at 3.7 mg/kg. Also, at human platelet PLA2 (setting [6]), it took 48 µM to reach half-maximal inhibition (IC50). With “Gold Sodium Thiomalate [reference compound]”, the IC50 at human platelet PLA2 (setting [6]) came to 43 µM.
